Data published in US20070020190A1, “Medicament comprising a highly potent long-lasting beta2-agonist in combination with other active ingredients” (priority 2003, published 2007).
Counter-ions that a name gives are not always drawn.

Key:
asthmatic patients = experiment: Preliminary clinical trial of bronchodilator efficacy (FEV1 by spirometry) in asthmatic patients; type: in vivo; conditions: single dose of 1 μg, inhalation
Description: The bronchodilator efficacy of TA 2005, defined as increase from baseline in the forced expiratory volume over one second (FEV1), measured by spirometry, has been assessed in a preliminary clinical trial in a small group of asthmatic patients.
The results have shown that already following administration of a single dose of 1 μg a mean and persistent increase of FEV1 approximately 30% greater than baseline can be obtained.

[1] = tested on: rat lung oedema induced by Sephadex; experiment: Sephadex-induced lung oedema model; type: in vivo; conditions: intratracheal; for non effective dose on Sephadex-induced lung oedema: from dose-response curves
Description: The rat lung oedema induced by Sephadex is a model which leads to inflammatory cells infiltration and long-lasting interstitial oedema. […] The test substances were suspended in saline and administered intratracheally suitably diluted in the Sephadex suspension. 24 h post-administration, the animals were sacrificed and the lungs removed and weighted. Percent inhibition of the Sephadex-induced oedema was then determined.

[2] = tested on: isolated tracheal strips from ovalbumin-sensitised guinea pigs; experiment: β2-desensitisation in isolated tracheal strips from ovalbumin-sensitised guinea pigs (carbachol-induced contraction); design: species or system guinea pig
Description: A prolonged use of β2-agonists results in down-regulation of pulmonary β2-adenoceptors. This phenomenon can be counteracted by concomitant treatment with a corticosteroid.
In the present study tracheal strips obtained from ovalbumin-sensitised guinea-pigs (100 mg/kg ip and 100 mg/kg sc, 20 days before sacrifice) were submitted to β2-desensitisation by contact for two 20-min periods with a supra-maximal concentration of salbutamol (5*10^−6 M). In some experiments guinea pigs 24 and 1.5 h before sacrifice received 50 mg/kg ip of budesonide.

[3] = tested on: isolated guinea pig tracheal strips; experiment: Carbachol-induced contraction in isolated guinea pig tracheal strips
From the text: The pharmacological interaction between the β2-adrenoceptor agonist TA 2005 and the M3-receptor antagonist tiotropium bromide was investigated in isolated guinea pig tracheal strips contracted with carbachol.

[4] = tested on: acetylcholine-induced bronchoconstriction in guinea-pigs; experiment: Acetylcholine-induced bronchoconstriction in guinea pigs (Konzett and Rossler); type: in vivo, guinea pig; conditions: for ED50, acetylcholine-induced bronchoconstriction: acetylcholine 20 μg/kg iv, superfused onto tracheal mucosa
Description: Guinea pigs were prepared as originally described by Konzett and Rossler, Naunyn-Schmiedeberg's Arch Pharmacol, 1940; 195: 556-557.
Bronchoconstriction was induced by intravenous administration of acetylcholine (20 μg/kg). The antibronchospastic activity of different concentrations of tiotropium (0.1 to 30 pmol) or TA 2005 (0.3 to 100 pmol), alone or in combination, was investigated.

healthy male volunteers = conditions: single inhaled doses 0.8-12.8 μg, cited from earlier work
[5] = tested on: bronchoconstriction induced by acetaldehyde in the guinea pig; experiment: Acetaldehyde-induced bronchoconstriction, histamine release and plasma extravasation in anaesthetized ventilated guinea pigs; type: in vivo
Description: Pharmacol., 362:184-189, 2000; as well as in a model of acetaldehyde induced bronchoconstriction (Berti et al., Arzneim-Forsch/Drug Res 1994; 44: 323-326).
The protective activity of TA 2005 (0.1 to 10 pmol), formoterol (0.3 to 30 pmol) or budesonide (31.25 to 500 nmol) was determined after intratracheal superfusion alone or in combination.

For COc1ccc(CC(C)NCC(O)c2ccc(O)c3[nH]c(=O)ccc23)cc1 [TA 2005, 8-Hydroxy-5-[(1R)-1-hydroxy-2-[[(1R)-2-(4-methoxyphenyl)-1-methylethyl]amino]ethyl-2(1H)-quinolinone hydrochloride salt], the “mean and persistent increase of FEV1 greater than baseline” value (asthmatic patients) was “approximately 30%”, the “non effective dose on Sephadex-induced lung oedema” value [1] was 0.01 nmol/kg and the “loss of potency in relaxing the carbachol-induced contraction” value ([2]; after β2-desensitisation with salbutamol 5*10^−6 M) was “about 3 times”. For the same compound, the “potentiation of relaxing effects” value ([2]; after β2-desensitisation, budesonide pretreatment 50 mg/kg ip 24 and 1.5 h before sacrifice) was “about 6 times”, the inhibition at 1 pM ([3]; Cavia porcellus, TA 2005 10^−12 M) was 29.3 ± 6.1% and the “inhibition of the effect of acetylcholine” value ([4]; 3 pmol of TA 2005 in the absence of tiotropium) was 18%. The “ED50, acetylcholine-induced bronchoconstriction” value [4] was 16.7 pmol, the “maximum no adverse effect dose” value (healthy male volunteers; metered dose nebuliser system) was 9.6 µg and the “effect on heart rate, tremor, pulmonary function and plasma potassium” value (healthy male volunteers) was “dose-dependent increase in heart rate, tremor and pulmonary function and a decrease in plasma potassium”.

For CCCC1O[C@@H]2C[C@H]3[C@@H]4CCC5=CC(=O)C=C[C@]5(C)[C@H]4[C@@H](O)C[C@]3(C)[C@]2(C(=O)CO)O1 (stereo partly shown) [budesonide], the “dose of budesonide needed to significantly inhibit Sephadex-induced lung oedema” value ([1]; budesonide alone (absence of TA 2005)) was 240 nmol/kg, the “dose of budesonide significantly inhibiting Sephadex-induced lung oedema” value ([1]; in the presence of TA 2005 (0.01 nmol/kg)) was 15 nmol/kg and the “dose of budesonide giving significant reduction in Sephadex-induced lung weight increase” value ([1]; in the presence of formoterol (0.1 nmol/kg)) was 120 nmol/kg. For the same compound, the “ED50, bronchoconstriction” value ([5]; budesonide alone, intratracheal superfusion) was 396 nmol, the “fold reduction of budesonide ED50, bronchoconstriction” value (from here on “fold reduction of budesonide ED50”) ([5]; combined with 0.1 pmol of TA 2005) was 5.3 fold and the “fold reduction of budesonide ED50” value ([5]; combined with 0.3 pmol of TA 2005) was 14.3 fold. The “fold reduction of budesonide ED50” value ([5]; combined with 0.3 pmol of formoterol) was 3.0 fold and the “fold reduction of budesonide ED50” value ([5]; combined with 1 pmol of formoterol) was 5.9 fold.

With COc1ccc(CC(C)NCC(O)c2ccc(O)c(NC=O)c2)cc1 (stereo not shown) [formoterol] the “effect on Sephadex-induced lung oedema” value ([1]; 24 h post-administration, TA 2005 0.001-0.1, formoterol 0.01-2, budesonide 15-480 nmol/kg) was “dose-dependent remission”, the “non effective dose on Sephadex-induced lung oedema” value [1] was 0.1 nmol/kg and the “decline of anti-bronchoconstrictive effect after 240 min” value ([5]; 30 pmol, intratracheal superfusion) was ~50%. For the same compound, the “effect on AcCHO effects (bronchoconstriction, histamine release, plasma extravasation)” value ([5]; intratracheal superfusion, TA 2005 0.1-10 pmol, formoterol 0.3-30 pmol, budesonide 31.25-500 nmol) was “potently antagonised”.

With C[N+]1(C)[C@@H]2C[C@@H](OC(=O)C(O)(c3cccs3)c3cccs3)C[C@H]1[C@@H]1O[C@@H]12 [tiotropium bromide] the “inhibition of carbachol-induced contraction” value ([3]; tiotropium bromide 3*10^−10 M) was 17.1±2.2%, the “potency relative to TA 2005” value ([4]; P<0.001) was 5.2 fold and the “ED50, acetylcholine-induced bronchoconstriction” value [4] was 3.2 pmol. For the same compound, the “effect on acetylcholine-induced bronchoconstriction” value ([4]; tiotropium 0.1-30 pmol, TA 2005 0.3-100 pmol, alone) was “dose-dependently antagonize”.
